Structures can show the parent of a compound that is named as a salt.
System: LTB4 production in HL-60 cells
Assay: A23187-Induced LTB4 Production in Human Promyelocytic Leukemia HL-60 Cells (HL-60 Cell Assay)
Type: cell-based
Details: for inhibition at 100 µM: 10^-4 M; for inhibition at 10 µM: 10^-5 M; for IC50: A23187-stimulated differentiated HL-60 cells, 10 minutes preincubation at 37° C.
From the text: A23187-Induced LTB4 Production in Human Promyelocytic Leukemia HL-60 Cells.
Calcium ionophore A23187 was obtained from Calbiochem (La Jolla, CA). Trans-stilbene oxide was obtained from Sigma (St. Louis, MO). Hanks' balanced salt solution (HBSS) (10X concentrate), 1 M Hepes, and Dulbecco's modified Eagle medium were obtained from GIBCO Laboratories (Grand Island, NY). Fetal bovine serum was obtained from HyClone Laboratories (Logan, UT) The LTB4 and PGE2 radioimmunoassay antibodies were purchased from Amersham International plc (Amersham, UK) and NEN Research Products (N. Billerica, MA), respectively. Reagents for assay of lactate dehydrogenase (LDH) activity were purchased from Beckman (Carlsbad, CA).
Preparation of HL 60 Cells:
HL-60 cells were cultured in Dulbecco's modified Eagle medium (supplementedwith 20% fetal bovine serum, 20 mM Hepes, 100 U/ml penicillin and 100 mcg/ml streptomycin) and maintained at 37° C. in a humidified atmosphere of 5% CO2 in air. Cells from exponentially growing cultures were seeded at 3×10^5 cells/ml and induced to differentiate into granulocyte with 0.8% (v/v) N,N dimethylformamide for 4 days (1,2). Prior to assay, differentiated HL-60 cells were washed once with Hanks' balanced salt solution containing 0.35 mg/ml sodium bicarbonate and 10 mM Hepes, pH 7.3 (HBSS) and resuspended in HBSS at a concentration of 3×10^6 cells/ml.
DMSO or test compounds as 100× concentrates in DMSO were added in duplicate to 1.0 ml HL-60 cell suspensions (3×10^6 cells) and preincubated at 37° C. for 10 minutes in a shaking water bath. After an additional 5 minute incubation with calcium ionophore A23187 (10 mcl @ 5×10^-4 M in DMSO), the cells were pelleted at 12,800×g for 15 seconds and the supernatant removed and stored at […] for quantification of LTB4 or PGE2 via radioimmunoassay and LDH activity.
LTB4 and PGE2 data were expressed as percent inhibition of A23187-stimulated controls. For IC50 determinations, the 4 parameter logistic model was used where y is the percent inhibition response and×is the log10 concentration of the inhibitor: [formula] Nonlinear regression was performed using the SAS (3) procedure NLIN to obtain least squares estimates of the four parameters in the above equation: y.infin. (maximum), Y0 (minimum), a (log10 IC50) and b (slope factor). Increases in mean LDH levels for A23187-stimulated cells in the presence of test compound were tested for significance using a one tailed two sample Student's t-test.

Compound	inhibition at 100 µM (A23187-stimulated HL-60 cells)	inhibition at 10 µM (A23187-stimulated HL-60 cells)	IC50	inhibition at 1 µM (10^-6 M, A23187-stimulated HL-60 cells)
CCCCCCC/C=C/C=C/C1OCC(CCCC(=O)O)O1 (racemic) [Example 8B, (±) 2-Undeca-1E,3E-dienyl-1,3-dioxolane-4-butanoic acid, lithium salt]	84%	–	–	–
CCCCCCCCCC/C=C/C=C/C1OCC(CCCC(=O)O)O1 (racemic) [Example 5B (Racemic Mixture), 2-Tetradeca-1E,3E-dienyl-1,3-dixolane-4-butanoic acid, lithium salt]	96%	80%	6.8 µM	–
CCCCCCCCCC/C=C/C=C/C1OCC(CCCC(=O)O)O1 (single isomer, unassigned) [Example 5B (Single Diastereomer), 2-Tetradeca-1E,3E-dienyl-1,3-dixolane-4-butanoic acid, lithium salt]	91%	77%	7.2 µM	–
CCCCCCCCCC/C=C/C=C/C1OCC(c2cccc(C(=O)O)c2)O1 (racemic) [Example 7B (Racemic Mixture), 3-(2-Tetradeca-1E,3E-dienyl-1,3-dioxolan-4-yl)benzoic acid, lithium salt]	89%	91%	2.5 µM	21%
CCCCCCCCCC/C=C/C=C/C1OCC(c2cccc(C(=O)[O-])c2)O1.[Li+] (single isomer, unassigned) [Example 7B (Single diastereomer), 3-(2-Tetradeca-1E,3E-dienyl-1,3-dioxolan-4-yl)benzoic acid, lithium salt]	92%	92%	3.6 µM	–
